Data as given in patent US10597392B2, “Tetrahydropyridopyrazines as modulators of GPR6” (Takeda Pharmaceutical Corporation Limited, priority 2014, dated 2020).

Molecular target: T1, GPR6 receptor expressed in CHO-K1 cells (Homo sapiens, UniProt P46095)
T1 construct: expressed in transfected cells
Assay: Inhibition of cAMP Activity of GPR6 In Vitro Assay
Type: cell-based
Settings: inhibition of constitutive cAMP activity of GPR6 in CHO-K1 cells, 45 min incubation, HTRF cAMP detection
Description: Inhibition of cAMP Activity of GPR6 In Vitro Assay
This cell based assay measures the ability of compounds to inhibit the constitutive cAMP activity of GPR6 receptor expressed in CHO-K1 cells. CHO cells were stably expressed with GPR6 receptor, whose expression is controlled by a tetracycline inducable element. The cells were cultured in medium containing F12K, 10% FBS, 1% Penn/Strep, 200 ug/mL Hygromycin. GPR6 receptor expression was induced for 20 hrs with 2 µg/ml doxycycline (sigma D9891) in growth media. After addition of doxycycline cells were plated at a density of 450-750 cells per well in 96-well half-volume black tissue culture plates (Costar) and placed in an incubator (37°, 5% CO2) for 20 hours prior to cAMP assays.
Culture media was removed from cells and they were washed with 50 µL/well of Ringer's Buffer (MgCl2 0.047 mg/mL, NaH2PO4 0.18 mg/mL, Na2HPO4 0.1 mg/mL, KCl 0.34 mg/mL, NaHCO3 1.26 mg/mL, D-glucose 1.8 mg/mL, NaCl 7 mg/mL; pH=7.4). Compounds suspended in DMSO were diluted in Ringer's Buffer containing 0.5% fatty acid free BSA plus 300 μM IBMX and incubated on cells for 45 min at 37° and 5% CO2. After incubation cells were incubated for 10 min at room temp with Eu-cAMP tracer solution from a Perkin Elmer Lance HTRF Ultra cAMP assay kit (TRF0263). Then ULight™-anti-cAMP solution from the Lance HTRF kit was added and incubated on a shaker at room temp for 1 hour prior to HTRF detection in a Perkin Elmer Envision plate reader.
IC50 curves were generated with a four-parameter logistic equation using GraphPad Prism 5.03.

T1 sequence (P46095 whole entry): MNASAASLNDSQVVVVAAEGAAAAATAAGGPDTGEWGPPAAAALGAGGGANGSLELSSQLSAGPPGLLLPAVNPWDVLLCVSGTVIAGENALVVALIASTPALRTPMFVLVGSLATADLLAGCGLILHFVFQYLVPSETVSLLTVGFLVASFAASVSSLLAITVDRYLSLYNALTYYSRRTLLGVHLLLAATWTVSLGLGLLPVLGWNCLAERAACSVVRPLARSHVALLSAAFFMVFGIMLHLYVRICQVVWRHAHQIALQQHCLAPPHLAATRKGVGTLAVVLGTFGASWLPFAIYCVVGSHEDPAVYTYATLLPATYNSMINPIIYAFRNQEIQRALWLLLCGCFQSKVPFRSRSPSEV

Structure (SMILES) | EC50
COc1ccc(CN2CCN(c3nc4cnc(C)cc4nc3N[C@@H]3CCOC3)CC2)c(F)c1 [Example 24, (R)-3-(4-(2-fluoro-4-methoxybenzyl)piperazin-1-yl)-7-methyl-N-(tetrahydrofuran-3-yl)pyrido[3,4-b]pyrazin-2-amine] | 311 nM
Cc1cc2nc(N[C@H]3C[C@@H](O)C3)c(N3CCC(Oc4ccc(F)cc4F)CC3)nc2cn1 [Example 9, cis-3-((3-(4-(2,4-difluorophenoxy)piperidin-1-yl)-7-methylpyrido[3,4-b]pyrazin-2-yl)amino)cyclobutanol] | 52.3 nM
Cc1cc2nc(N3CCN(Cc4ccc(F)cc4F)CC3)c(N[C@@H]3CCOC3)nc2cn1 [Example 33] | 102 nM
COc1ccc(CN2CCN(c3nc4cnc(C)cc4nc3NC(C)C)CC2)c(F)c1 [Example 22, 3-(4-(2-fluoro-4-methoxybenzyl)piperazin-1-yl)-N-isopropyl-7-methylpyrido[3,4-b]pyrazin-2-amine] | 37.3 nM
Cc1cc2nc(NC3CC3)c(N3CCC(Oc4ccc(OC(F)F)cc4F)CC3)nc2cn1 [Example 19, N-cyclopropyl-3-(4-(4-(difluoromethoxy)-2-fluorophenoxy)piperidin-1-yl)-7-methylpyrido[3,4-b]pyrazin-2-amine] | 62.6 nM
Cc1cc2nc(N[C@H]3CCOC3)c(N3CCN(Cc4ccc(F)cc4F)CC3)nc2cn1 [Example 3] | 88.2 nM
Cc1cc2nc(N3CCN(Cc4ccc(OC(F)F)cc4F)CC3)c(N[C@H]3CCOC3)nc2cn1 [Example 49, (S)-2-(4-(4-(difluoromethoxy)-2-fluorobenzyl)piperazin-1-yl)-7-methyl-N-(tetrahydrofuran-3-yl)pyrido[3,4-b]pyrazin-3-amine] | > 1000 nM
COc1ccc(CN2CCN(c3nc4cc(C)ncc4nc3NC3CC3)CC2)c(F)c1 [Example 43, N-cyclopropyl-2-(4-(2-fluoro-4-methoxybenzyl)piperazin-1-yl)-7-methylpyrido[3,4-b]pyrazin-3-amine] | > 1000 nM
Cc1cc2nc(N[C@H]3C[C@H](O)C3)c(N3CCN(Cc4ccc(F)cc4F)CC3)nc2cn1 [Example 14, trans-3-((3-(4-(2,4-difluorobenzyl)piperazin-1-yl)-7-methylpyrido[3,4-b]pyrazin-2-yl)amino)cyclobutanol] | 75.2 nM
Cc1cc2nc(N3CCC(Oc4ccc(F)cc4F)CC3)c(N[C@H]3CCOC3)nc2cn1 [Example 37, (S)-2-(4-(2,4-difluorophenoxy)piperidin-1-yl)-7-methyl-N-(tetrahydrofuran-3-yl)pyrido[3,4-b]pyrazin-3-amine] | 128 nM
Cc1cc2nc(N3CCN(Cc4ccc(F)cc4F)CC3)c(NC(C)C)nc2cn1 [Example 30, 2-(4-(2,4-difluorobenzyl)piperazin-1-yl)-N-isopropyl-7-methylpyrido[3,4-b]pyrazin-3-amine 2,2,2-trifluoroacetate] | 80.1 nM
Cc1cc2nc(N3CCN(Cc4ccc(OC(F)F)cc4F)CC3)c(NC(C)C)nc2cn1 [Example 46, 2-(4-(4-(difluoromethoxy)-2-fluorobenzyl)piperazin-1-yl)-N-isopropyl-7-methylpyrido[3,4-b]pyrazin-3-amine] | > 1000 nM
Cc1cc2nc(N[C@H]3C[C@H](O)C3)c(N3CCC(Oc4ccc(F)cc4F)CC3)nc2cn1 [Example 13, trans-3-((3-(4-(2,4-difluorophenoxy)piperidin-1-yl)-7-methylpyrido[3,4-b]pyrazin-2-yl)amino)cyclobutanol] | 48.2 nM
Cc1cc2nc(N3CCC(Oc4ccc(OC(F)F)cc4F)CC3)c(NC(C)C)nc2cn1 [Example 38, 2-(4-(4-(difluoromethoxy)-2-fluorophenoxy)piperidin-1-yl)-N-isopropyl-7-methylpyrido[3,4-b]pyrazin-3-amine] | 309 nM
Cc1cc2nc(N3CCN(Cc4ccc(F)cc4F)CC3)c(N[C@H]3CCOC3)nc2cn1 [Example 32, (S)-2-(4-(2,4-difluorobenzyl)piperazin-1-yl)-7-methyl-N-(tetrahydrofuran-3-yl)pyrido[3,4-b]pyrazin-3-amine] | 326 nM
Cc1cc2nc(NC3COC3)c(N3CCN(Cc4ccc(F)cc4F)CC3)nc2cn1 [Example 15, 3-(4-(2,4-difluorobenzyl)piperazin-1-yl)-7-methyl-N-(oxetan-3-yl)pyrido[3,4-b]pyrazin-2-amine] | 21.9 nM
Cc1cc2nc(N3CCN(Cc4ccc(OC(F)F)cc4F)CC3)c(NC3CC3)nc2cn1 [Example 47, N-cyclopropyl-2-(4-(4-(difluoromethoxy)-2-fluorobenzyl)piperazin-1-yl)-7-methylpyrido[3,4-b]pyrazin-3-amine] | > 1000 nM

Structure (SMILES) | EC50
Cc1cc2nc(N3CCC(Oc4ccc(OC(F)F)cc4F)CC3)c(NC3CC3)nc2cn1 [Example 39, N-cyclopropyl-2-(4-(4-(difluoromethoxy)-2-fluorophenoxy)piperidin-1-yl)-7-methylpyrido[3,4-b]pyrazin-3-amine] | > 5000 nM
Cc1cc2nc(NC(C)C)c(N3CCN(Cc4ccc(F)cc4F)CC3)nc2cn1 [Example 1, 3-(4-(2,4-difluorobenzyl)piperazin-1-yl)-N-isopropyl-7-methylpyrido[3,4-b]pyrazin-2-amine] | 59.4 nM
COc1ccc(CN2CCN(c3nc4cnc(C)cc4nc3NC3CC3)CC2)c(F)c1 [Example 23, N-cyclopropyl-3-(4-(2-fluoro-4-methoxybenzyl)piperazin-1-yl)-7-methylpyrido[3,4-b]pyrazin-2-amine] | 158 nM
Cc1cc2nc(N3CCN(Cc4ccc(F)cc4F)CC3)c(NC3COC3)nc2cn1 [Example 50, 2-(4-(2,4-difluorobenzyl)piperazin-1-yl)-7-methyl-N-(oxetan-3-yl)pyrido[3,4-b]pyrazin-3-amine] | 164 nM
COc1ccc(OC2CCN(c3nc4cnc(C)cc4nc3NC3CC3)CC2)c(F)c1 [Example 8, N-cyclopropyl-3-(4-(2-fluoro-4-methoxyphenoxy)piperidin-1-yl)-7-methylpyrido[3,4-b]pyrazin-2-amine 2,2,2-trifluoroacetate] | 18.5 nM
Cc1cc2nc(N3CCC(Oc4ccc(F)cc4F)CC3)c(N[C@@H]3CCOC3)nc2cn1 [Example 36] | 76.3 nM
Cc1cc2nc(N3CCC(Oc4ccc(F)cc4F)CC3)c(NC3CC3)nc2cn1 [Example 34, N-cyclopropyl-2-(4-(2,4-difluorophenoxy)piperidin-1-yl)-7-methylpyrido[3,4-b]pyrazin-3-amine] | 94.9 nM
Cc1cc2nc(NC(C)C)c(N3CCN(Cc4ccc(OC(F)F)cc4F)CC3)nc2cn1 [Example 26, 3-(4-(4-(difluoromethoxy)-2-fluorobenzyl)piperazin-1-yl)-N-isopropyl-7-methylpyrido[3,4-b]pyrazin-2-amine] | 466 nM
Cc1cc2nc(N[C@H]3C[C@H](F)C3)c(N3CCN(Cc4ccc(F)cc4F)CC3)nc2cn1 [Example 12, trans-3-(4-(2,4-difluorobenzyl)piperazin-1-yl)-N-(3-fluorocyclobutyl)-7-methylpyrido[3,4-b]pyrazin-2-amine] | 49.4 nM
COc1ccc(CN2CCN(c3nc4cc(C)ncc4nc3NC(C)C)CC2)c(F)c1 [Example 42, 2-(4-(2-fluoro-4-methoxybenzyl)piperazin-1-yl)-N-isopropyl-7-methylpyrido[3,4-b]pyrazin-3-amine] | 276 nM
Cc1cc2nc(N[C@H]3CCOC3)c(N3CCN(Cc4ccc(OC(F)F)cc4F)CC3)nc2cn1 [Example 29, (S)-3-(4-(4-(difluoromethoxy)-2-fluorobenzyl)piperazin-1-yl)-7-methyl-N-(tetrahydrofuran-3-yl)pyrido[3,4-b]pyrazin-2-amine] | > 1000 nM
Cc1cc2nc(N3CCC(Oc4ccc(OC(F)F)cc4F)CC3)c(N[C@H]3CCOC3)nc2cn1 [Example 41, (S)-2-(4-(4-(difluoromethoxy)-2-fluorophenoxy)piperidin-1-yl)-7-methyl-N-(tetrahydrofuran-3-yl)pyrido[3,4-b]pyrazin-3-amine] | > 1000 nM
Cc1cc2nc(N[C@H]3CCOC3)c(N3CCC(Oc4ccc(F)cc4F)CC3)nc2cn1 [Example 4, (S)-3-(4-(2,4-difluorophenoxy)piperidin-1-yl)-7-methyl-N-(tetrahydrofuran-3-yl)pyrido[3,4-b]pyrazin-2-amine] | 49.6 nM
Cc1cc2nc(NC(C)C)c(N3CCC(Oc4ccc(OC(F)F)cc4F)CC3)nc2cn1 [Example 18, 3-(4-(4-(difluoromethoxy)-2-fluorophenoxy)piperidin-1-yl)-N-isopropyl-7-methylpyrido[3,4-b]pyrazin-2-amine] | 39.9 nM
Cc1cc2nc(N[C@@H]3CCOC3)c(N3CCC(Oc4ccc(OC(F)F)cc4F)CC3)nc2cn1 [Example 20, (R)-3-(4-(4-(difluoromethoxy)-2-fluorophenoxy)piperidin-1-yl)-7-methyl-N-(tetrahydrofuran-3-yl)pyrido[3,4-b]pyrazin-2-amine] | 81.4 nM
COc1ccc(CN2CCN(c3nc4cc(C)ncc4nc3N[C@@H]3CCOC3)CC2)c(F)c1 [Example 44, (R)-2-(4-(2-fluoro-4-methoxybenzyl)piperazin-1-yl)-7-methyl-N-(tetrahydrofuran-3-yl)pyrido[3,4-b]pyrazin-3-amine] | > 1000 nM
